# Patent US8703768B2, “Nitrogen containing heteroaryl compounds” (Hoffmann-La Roche Inc., priority 2010, dated 2014)
# Target: human PDE10A (Homo sapiens (Human), UniProt Q9Y233)
# Experiment: human PDE10A full length Scintillation Proximity Assay (SPA)
# Format: biochemical
# Settings: 50 nM cGMP and 50 nM [3H]-cGMP, 20 minutes at room temperature; read-out: PDE10A inhibition IC50
# Summary of the method: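 Full-length enzyme incubated with compounds; reaction started with cGMP plus [^3H]-cGMP substrate and run 20 min at room temperature. Stopped with yttrium silicate SPA beads in 18 mM zinc sulphate, 1 h shaking, then scintillation counting; background from enzyme-free wells.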
# human PDE10A, sequence (Q9Y233 other isoform, or with tags, fused parts or gaps): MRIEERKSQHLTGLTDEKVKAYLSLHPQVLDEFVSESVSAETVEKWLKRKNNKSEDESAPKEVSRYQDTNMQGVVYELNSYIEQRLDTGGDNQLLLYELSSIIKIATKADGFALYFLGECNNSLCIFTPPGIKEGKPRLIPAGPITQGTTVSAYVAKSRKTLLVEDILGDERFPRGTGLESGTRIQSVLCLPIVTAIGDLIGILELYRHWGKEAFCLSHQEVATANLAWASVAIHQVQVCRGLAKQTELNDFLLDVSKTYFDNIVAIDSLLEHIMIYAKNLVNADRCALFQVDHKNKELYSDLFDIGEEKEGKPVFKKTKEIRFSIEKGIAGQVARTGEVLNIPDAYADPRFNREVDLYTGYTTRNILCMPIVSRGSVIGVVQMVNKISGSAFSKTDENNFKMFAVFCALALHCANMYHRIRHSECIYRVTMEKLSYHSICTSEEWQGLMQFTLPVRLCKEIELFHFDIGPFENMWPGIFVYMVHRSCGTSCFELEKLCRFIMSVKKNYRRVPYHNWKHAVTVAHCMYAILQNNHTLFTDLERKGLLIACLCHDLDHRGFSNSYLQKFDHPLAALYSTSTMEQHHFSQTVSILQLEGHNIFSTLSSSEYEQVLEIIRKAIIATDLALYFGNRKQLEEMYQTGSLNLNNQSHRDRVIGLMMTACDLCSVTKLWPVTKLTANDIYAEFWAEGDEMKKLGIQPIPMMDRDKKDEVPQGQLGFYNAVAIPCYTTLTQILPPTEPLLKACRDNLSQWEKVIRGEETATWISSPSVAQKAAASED
row,Structure (SMILES),IC50
1,"CNC(=O)c1cc(Cl)ncc1NC(=O)c1nc(C2CC2)cnc1Nc1cncnc1 [Example 259, 6-Cyclopropyl-3-(pyrimidin-5-ylamino)-pyrazine-2-carboxylic acid (6-chloro-4-methylcarbamoyl-pyridin-3-yl)-amide]",1.8 nM
2,"CC(C)(O)CNC(=O)c1cc(Cl)ncc1NC(=O)c1nc(C2CC2)cnc1Nc1cncnc1 [Example 260, 6-Cyclopropyl-3-(pyrimidin-5-ylamino)-pyrazine-2-carboxylic acid [6-chloro-4-(2-hydroxy-2-methyl-propylcarbamoyl)-pyridin-3-yl]-amide]",1.6 nM
3,"CNC(=O)c1cc(C#N)ccc1NC(=O)c1nc(C2CC2)cnc1Nc1cncnc1 [Example 261, 6-Cyclopropyl-3-(pyrimidin-5-ylamino)-pyrazine-2-carboxylic acid (4-cyano-2-methylcarbamoyl-phenyl)-amide]",3.5 nM
4,"CNC(=O)c1c(NC(=O)c2nc(C3CC3)cnc2Nc2cncnc2)ccc(C)c1C [Example 263, 6-Cyclopropyl-3-(pyrimidin-5-ylamino)-pyrazine-2-carboxylic acid (3,4-dimethyl-2-methylcarbamoyl-phenyl)-amide]",54.3 nM
5,"CNC(=O)c1c(NC(=O)c2nc([C@H]3CCOC3)cnc2Nc2cncnc2)cnn1C [Example 266, 3-(Pyrimidin-5-ylamino)-6-(R)-tetrahydro-furan-3-yl-pyrazine-2-carboxylic acid (1-methyl-5-methylcarbamoyl-1H-pyrazol-4-yl)-amide]",12 nM
6,"CNC(=O)c1c(NC(=O)c2nc([C@@H]3CCOC3)cnc2Nc2cncnc2)cnn1C [Example 267, 3-(Pyrimidin-5-ylamino)-6-(S)-tetrahydro-furan-3-yl-pyrazine-2-carboxylic acid (1-methyl-5-methylcarbamoyl-1H-pyrazol-4-yl)-amide]",7 nM
7,"Cc1ccc(NC(=O)c2nc(C3CC3)cnc2Nc2cncnc2)c(C(=O)N(C)C)n1 [Example 268, 6-Cyclopropyl-3-(pyrimidin-5-ylamino)-pyrazine-2-carboxylic acid (2-dimethylcarbamoyl-6-methyl-pyridin-3-yl)-amide]",14.9 nM
8,"CCN(CCO)C(=O)c1ncccc1NC(=O)c1nc(C2CC2)cnc1Nc1cncnc1 [Example 270, 6-Cyclopropyl-3-(pyrimidin-5-ylamino)-pyrazine-2-carboxylic acid {2-[ethyl-(2-hydroxy-ethyl)-carbamoyl]-pyridin-3-yl}-amide]",53.3 nM
9,"O=C(NCCO)c1ncccc1NC(=O)c1nc(C2CC2)cnc1Nc1cncnc1 [Example 271, 6-Cyclopropyl-3-(pyrimidin-5-ylamino)-pyrazine-2-carboxylic acid [2-(2-hydroxy-ethylcarbamoyl)-pyridin-3-yl]-amide]",0.4 nM
10,"CC(C)(CO)NC(=O)c1ncccc1NC(=O)c1nc(C2CC2)cnc1Nc1cncnc1 [Example 273, 6-Cyclopropyl-3-(pyrimidin-5-ylamino)-pyrazine-2-carboxylic acid [2-(2-hydroxy-1,1-dimethyl-ethylcarbamoyl)-pyridin-3-yl]-amide]",0.3 nM
11,"CNC(=O)c1c(NC(=O)c2nc(C3CC3)cnc2Nc2cncnc2)cnn1CC1CCOC1 (centres unmarked) [Example 286, 6-Cyclopropyl-3-(pyrimidin-5-ylamino)-pyrazine-2-carboxylic acid [5-methylcarbamoyl-1-(tetrahydro-furan-3-ylmethyl)-1H-pyrazol-4-yl]-amide]",43.2 nM
12,"CNC(=O)c1cc(F)c(F)cc1NC(=O)c1nc(C2CC2)cnc1Nc1cncnc1 [Example 288, 6-Cyclopropyl-3-(pyrimidin-5-ylamino)-pyrazine-2-carboxylic acid (4,5-difluoro-2-methylcarbamoyl-phenyl)-amide]",0.8 nM
13,"CNC(=O)c1cccc(F)c1NC(=O)c1nc(C2CC2)cnc1Nc1cncnc1 [Example 290, 6-Cyclopropyl-3-(pyrimidin-5-ylamino)-pyrazine-2-carboxylic acid (2-fluoro-6-methylcarbamoyl-phenyl)-amide]",2.8 nM
14,"CN(C)C(=O)c1ccc(F)cc1NC(=O)c1nc(C2CC2)cnc1Nc1cncnc1 [Example 294, 6-Cyclopropyl-3-(pyrimidin-5-ylamino)-pyrazine-2-carboxylic acid (2-dimethylcarbamoyl-5-fluoro-phenyl)-amide]",19.3 nM
15,"CC(C)(O)CNC(=O)c1cc(C(F)(F)F)ccc1NC(=O)c1nc(C2CC2)cnc1Nc1cncnc1 [Example 295, 6-Cyclopropyl-3-(pyrimidin-5-ylamino)-pyrazine-2-carboxylic acid [2-(2-hydroxy-2-methyl-propylcarbamoyl)-4-trifluoromethyl-phenyl]-amide]",2.3 nM
16,"CNC(=O)c1cc(C(F)(F)F)ccc1NC(=O)c1nc(C2CC2)cnc1Nc1cncnc1 [Example 296, 6-Cyclopropyl-3-(pyrimidin-5-ylamino)-pyrazine-2-carboxylic acid (2-methylcarbamoyl-4-trifluoromethyl-phenyl)-amide]",3.9 nM

# More lines, in order of falling IC50, values ahead:
row,IC50,Structure (SMILES)
1,31.2 nM,"O=C(Nc1cc(F)c(F)cc1C(=O)N1CCC1)c1nc(C2CC2)cnc1Nc1cncnc1 [Example 291, 6-Cyclopropyl-3-(pyrimidin-5-ylamino)-pyrazine-2-carboxylic acid [2-(azetidine-1-carbonyl)-4,5-difluoro-phenyl]-amide]"
2,28 nM,"CN(C)C(=O)c1cc(F)c(F)cc1NC(=O)c1nc(C2CC2)cnc1Nc1cncnc1 [Example 284, 6-Cyclopropyl-3-(pyrimidin-5-ylamino)-pyrazine-2-carboxylic acid (2-dimethylcarbamoyl-4,5-difluoro-phenyl)-amide]"
3,24 nM,"CNC(=O)c1c(NC(=O)c2nc(N3CCCC3)cnc2Nc2cncnc2)cnn1C [Example 289, 3-(Pyrimidin-5-ylamino)-6-pyrrolidin-1-yl-pyrazine-2-carboxylic acid (1-methyl-5-methylcarbamoyl-1H-pyrazol-4-yl)-amide]"
4,20.6 nM,"CN(C)C(=O)c1nc(C2CC2)ccc1NC(=O)c1nc(C2CC2)cnc1Nc1cncnc1 [Example 265, 6-Cyclopropyl-3-(pyrimidin-5-ylamino)-pyrazine-2-carboxylic acid (6-cyclopropyl-2-dimethylcarbamoyl-pyridin-3-yl)-amide]"
5,15.1 nM,"CC(C)(O)CNC(=O)c1c(NC(=O)c2nc(C3CC3)cnc2Nc2cncnc2)cnn1CC1CCOC1 (centres unmarked) [Example 287, 6-Cyclopropyl-3-(pyrimidin-5-ylamino)-pyrazine-2-carboxylic acid [5-(2-hydroxy-2-methyl-propylcarbamoyl)-1-(tetrahydro-furan-3-ylmethyl)-1H-pyrazol-4-yl]-amide]"
6,12.7 nM,"CN(CCO)C(=O)c1ncccc1NC(=O)c1nc(C2CC2)cnc1Nc1cncnc1 [Example 269, 6-Cyclopropyl-3-(pyrimidin-5-ylamino)-pyrazine-2-carboxylic acid {2-[(2-hydroxy-ethyl)-methyl-carbamoyl]-pyridin-3-yl}-amide]"
7,8.5 nM,"O=C(Nc1ccc(C2CC2)nc1C(=O)N1CCC1)c1nc(C2CC2)cnc1Nc1cncnc1 [Example 272, 6-Cyclopropyl-3-(pyrimidin-5-ylamino)-pyrazine-2-carboxylic acid [2-(azetidine-1-carbonyl)-6-cyclopropyl-pyridin-3-yl]-amide]"
8,6 nM,"CC(C)(O)CNC(=O)c1cccc(F)c1NC(=O)c1nc(C2CC2)cnc1Nc1cncnc1 [Example 293, 6-Cyclopropyl-3-(pyrimidin-5-ylamino)-pyrazine-2-carboxylic acid [2-fluoro-6-(2-hydroxy-2-methyl-propylcarbamoyl)-phenyl]-amide]"
9,3.2 nM,"CNC(=O)c1c(NC(=O)c2nc(C3CC3)cnc2Nc2cncnc2)cnn1CCO [Example 264, 6-Cyclopropyl-3-(pyrimidin-5-ylamino)-pyrazine-2-carboxylic acid [1-(2-hydroxy-ethyl)-5-methylcarbamoyl-1H-pyrazol-4-yl]-amide]"
10,2.7 nM,"O=C(NC1COC1)c1ncccc1NC(=O)c1nc(C2CC2)cnc1Nc1cncnc1 [Example 277, 6-Cyclopropyl-3-(pyrimidin-5-ylamino)-pyrazine-2-carboxylic acid [2-(oxetan-3-ylcarbamoyl)-pyridin-3-yl]-amide]"
11,2 nM,"CNC(=O)c1c(NC(=O)c2nc(C3CC3)cnc2Nc2cncnc2)cnn1CC1CCO1 (centres unmarked) [Example 282, 6-Cyclopropyl-3-(pyrimidin-5-ylamino)-pyrazine-2-carboxylic acid (5-methylcarbamoyl-1-oxetan-2-ylmethyl-1H-pyrazol-4-yl)-amide]"
12,1.9 nM,"Cc1ccc(NC(=O)c2nc(C3CC3)cnc2Nc2cncnc2)c(C(=O)N2CCC2)n1 [Example 278, 6-Cyclopropyl-3-(pyrimidin-5-ylamino)-pyrazine-2-carboxylic acid [2-(azetidine-1-carbonyl)-6-methyl-pyridin-3-yl]-amide]"
13,1.1 nM,"CC(C)(O)CNC(=O)c1c(NC(=O)c2nc(C3CC3)cnc2Nc2cncnc2)cnn1CC1CCO1 (centres unmarked) [Example 283, 6-Cyclopropyl-3-(pyrimidin-5-ylamino)-pyrazine-2-carboxylic acid [5-(2-hydroxy-2-methyl-propylcarbamoyl)-1-oxetan-2-ylmethyl-1H-pyrazol-4-yl]-amide]"
14,0.7 nM,"CNC(=O)c1ccc(F)cc1NC(=O)c1nc(C2CC2)cnc1Nc1cncnc1 [Example 292, 6-Cyclopropyl-3-(pyrimidin-5-ylamino)-pyrazine-2-carboxylic acid (5-fluoro-2-methylcarbamoyl-phenyl)-amide]"
15,0.6 nM,"Cc1ncc(NC(=O)c2nc(C3CC3)cnc2Nc2cncnc2)c(C(=O)NCC(C)(C)O)n1 [Example 281, 5-{[6-Cyclopropyl-3-(pyrimidin-5-ylamino)-pyrazine-2-carbonyl]-amino}-2-methyl-pyrimidine-4-carboxylic acid (2-hydroxy-2-methyl-propyl)-amide]"
16,0.4 nM,"CC1(NC(=O)c2ncccc2NC(=O)c2nc(C3CC3)cnc2Nc2cncnc2)COC1 [Example 275, 6-Cyclopropyl-3-(pyrimidin-5-ylamino)-pyrazine-2-carboxylic acid [2-(3-methyl-oxetan-3-ylcarbamoyl)-pyridin-3-yl]-amide]"
